How the values were obtained:
Format in all cases: cell-based
[1] = biological target: T1, MCL-1–BIM complexes (Homo sapiens, UniProt Q07820); assay: MCL-1/BIM co-immunoprecipitation and immunoblot in H929 cells; details: 10 μM, 4 h
T1 construct: endogenous in cells; host or cells: H929
Procedure: (§1) Figure 1 MCL-1 levels are elevated in cancer cells after treatment with MCL-1-binding small molecules. (a) H929 multiple myeloma cells were treated for 4 h with 10 μM A-1210477 before immunopreciptating MCL-1. […] A control H929 lysate was run in lane 1, and an immunoprecipitation with a non-specific antibody (Ig) was run in lane 2. The positions of molecular weight markers (specified in kiloDaltons) are indicated on the left. (b) HCC-1806 breast cancer cells were incubated with increasing concentrations of A-1210477 (0.1, 0.5, 1, 5, 10, 15, or 20 μM) or bortezomib (2, 10, or 50 nM) for 8 h before assessing MCL-1 and NOXA levels by immunoblotting. β-Actin was probed as a protein loading control. The lower graph depicts reverse transcriptase-PCR quantification of MCL1 mRNA from HCC-1806 cells treated for 8 h with similar concentrations of A-1210477. (c) HCC-1806 cells were incubated with increasing concentrations (0.1, 0.5, 1, 5, 10, and 20 μM) of A-954248, A-962653, or A-1248767 for 24 h before assessing MCL-1 and BCL-XL levels by immunoblotting. β-Actin was probed as a protein loading control
Antibodies for MCL-1-BIM co-immunoprecipitation studies were obtained from Thermo Fisher Scientific (Waltham, MA, USA; anti-MCL-1 clone RC13) and Abcam (Cambridge, MA, USA; anti-BIM clone Y36). […]

[2] = biological target: MCL-1 (Homo sapiens, UniProt Q07820); assay: MCL-1 protein levels by immunoblotting in HCC-1806 cells; design: endogenous in cells; host or cells: HCC-1806; details: immunoblot
MCL-1, sequence (Q07820 whole entry): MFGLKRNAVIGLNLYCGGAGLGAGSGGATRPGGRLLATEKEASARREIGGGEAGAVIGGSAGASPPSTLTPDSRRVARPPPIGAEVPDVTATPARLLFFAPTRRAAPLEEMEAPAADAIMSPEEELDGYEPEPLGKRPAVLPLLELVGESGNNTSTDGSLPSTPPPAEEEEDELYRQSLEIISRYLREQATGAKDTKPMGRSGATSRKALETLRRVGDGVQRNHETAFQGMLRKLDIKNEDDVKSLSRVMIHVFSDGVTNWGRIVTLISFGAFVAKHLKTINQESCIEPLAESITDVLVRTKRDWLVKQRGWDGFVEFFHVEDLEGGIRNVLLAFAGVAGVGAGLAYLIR
Procedure: as §1
Cells were scraped into cold PBS, pelleted, and then resuspended in 100–200 μl ice-cold insect cell lysis buffer supplemented with protease inhibitors (BD Biosciences Pharmingen, San Diego, CA, USA). Cells were lysed by sonication, and the debris was cleared in a microcentrifuge. […]

[3] = test system: EJ-1 cells; assay: Navitoclax / A-1210477 combination cell viability, EJ-1 cells; details: EJ-1, 48 h
Procedure: Figure 6 A-1210477 synergizes with navitoclax to kill hematological and solid tumor cell lines. BxPC-3, EJ-1, H23, and OPM-2 cells were treated with increasing concentrations of navitoclax in the presence or absence of increasing concentrations of A-1210477 for 48 h before assessing cell viability. All data points represent the means of triplicate experiments, with error bars indicating the S.E.M. TEXT PRINTED IN THE PICTURE: A-1210477 + navitoclax: Bliss sum (BxPC-3): 716; Bliss sum (EJ-1): 464; Bliss sum (H23): 76; Bliss sum (OPM-2): 946 DOUBTS OF THE COPYIST ABOUT THIS PICTURE: The Bliss sums apply to the combination of A-1210477 and navitoclax. The picture prints the two names separately (legend heading and axis title), not as one joined label.
Adherent cell lines were seeded at 50 000 cells per well in 96-well plates and treated for 48 h with compounds diluted in half-log steps starting at 30 μM and ending at 0.001 μM. Multiple myeloma cell lines were seeded at 15 000–20 000 cells per well and treated similarly. Effects on proliferation and viability were determined using CellTiter-Glo reagent from Promega (Madison, WI, USA) according to the manufacturer's instructions. IC50 values were determined by non-linear regression analysis of the concentration response data.

T1 sequence (Q07820 whole entry, one chain of several): as the sequence (Q07820 whole entry) above

SMILES: Cc1nn(C)c(COc2ccc(N3CCN(S(=O)(=O)N(C)C)CC3)cc2)c1-c1cccc2c(CCCOc3cccc4ccccc34)c(C(=O)O)n(CCN3CCOCC3)c12 [A-1210477]
- BIM co-immunoprecipitated with MCL-1 antibody [1]: reduce the amount of BIM co-immunoprecipitated
- effect on MCL-1 protein levels ([2]; 0.1-20 μM): triggered MCL-1 elevation
- lowest concentration at which increases in MCL-1 protein could be observed ([2]; 8 h or 24 h): 0.5 µM
- potentiation of navitoclax [3]: substantially shifted the dose–response curve of navitoclax

From publication PMC4669759 (Cell Death & Disease, 2015)
